Measurements published in patent US12162857B2, “Antiviral compounds” (priority 2022, dated 2024).

Legend:
[1] = test system: Human RSV-A (“Long” strain); test: RSV-A assay: CPE in Hep-2 cells, ATPlite readout; format: cell-based; settings: MOI 0.1, 5-day incubation
From the text: Hep-2 cells, (originally derived from tumors grown in irradiated-cortisonised weanling rats that had been injected with epidermoid carcinoma tissue from a person's larynx, but later found to be indistinguishable from HeLa cells by PCR DNA analysis), were used for the culturing of genotype A, “Long” strain RSV. Flasks were inoculated with RSV and viral stocks were collected once cytopathic effect (CPE) was greater than 90%. Viral stocks in 25% sucrose media were snap frozen using liquid nitrogen to increase viral stability. Viral stock titers were quantified by tissue culture infectious dose 50% (TCID50) using 8,000 cells per well and 3-fold viral dilutions across a 96-well plate, cultured for 4 days. Viral stock titers were also quantified by a plaque forming unit assay, as described elsewhere.
Following extensive parameter testing, the final assay is run as follows: Hep-2 cells are seeded into the inner 60 wells of a 96-well plate at 8,000 cells per well in a volume of 50 μL using Growth Media (DMEM without phenol red, 1% L-Glut, 1% Penn/Strep, 1% nonessential amino acids, 10% heat-inactivated FBS). 2-fold serial dilutions of control and test compounds are added to the wells in duplicate in a total volume of 25 μL. Viral stock is then added to the wells at a multiplicity of infection (MOI) of 0.1 in a volume of 25 μL, bringing the total volume of each well to 100 μL. The MOI is calculated using the PFU/mL, or TCID50 if unavailable. Each 96-well plate has a control column of 6 wells with cells and virus but no compound (negative control, max CPE), a column with cells but no compound or virus (positive control, minimum CPE), and a column with no cells or virus or compound (background plate/reagent control). The control wells with cells but no virus are given an additional 25 μL of growth media containing an equal quantity of sucrose as those wells receiving the viral stock in order to keep consistent in media and volume conditions. The outer wells of the plate are filled with 125 μL of moat media (DMEM, 100 Penn/Strep) to act as a thermal and evaporative moat around the test wells. Following a 5-day incubation period, the plates are read using ATPlite (50 uL added per well), which quantifies the amount of ATP (a measure of cell health) present in each well. Assay plates are read using the Envision luminometer. […] EC50 ranges are as follows: A<0.01 μM; B 0.01-0.05 μM; C>0.05 μM.

[2] = test system: HMPV A2 TN/94-49; test: HMPV antiviral assay: LLC-MK2 cells, ATP-Lite readout; format: cell-based; settings: MOI 0.005, 7 days incubation
Method in brief: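 LLC-MK2 cells (5,000/well) were infected in suspension with HMPV A2 TN/94-49 at MOI 0.005 in serum-free OptiMEM with 2 μg/mL final TPCK-trypsin, then incubated for 7 days at 37 °C. Compounds were tested in duplicate from 2 μM in 10-point 2.5-fold dilutions. ATP-Lite luminescence, normalised to virus-only and cells-only controls as % cell health, gave EC50 by four-parameter fit.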

[3] = test system: HRSV; settings: prophylactic use, high risk infants; cited from earlier work
[4] = human respiratory syncytial virus, 120 h

Molecule | EC50 [1, 4] | EC50 ([2]; LLC-MK2, 168 h) | EC50 [1] | EC50 [2] | effective in reducing hospitalizations [3]
[2H]C([2H])([2H])C(O)(c1cc([C@@](O)(CNC(=O)c2cc(OC)n3nc(C4CC4)cc3c2)c2ccccc2)nc(-c2cc(Cl)c(F)cc2F)c1F)C([2H])([2H])[2H] [Example 184] | < 10 nM | < 1000 nM |  |  | 
CC(C)(O)c1cc([C@@](O)(CNC(=O)c2cc(OC3CC3)c3nn(C4(F)CC4)cc3c2)C2CC2)nc(-c2ccc(F)cc2)c1F [Example 5] | < 10 nM | < 1000 nM |  |  | 
Cc1nc2c(OC(F)F)cc(C(=O)NC[C@](O)(c3cc(C(C)(C)O)c(F)c(-c4cc(Cl)c(F)cc4F)n3)C3CC3)cc2cc1Br [Example 59] | < 10 nM | > 1000 nM |  |  | 
COc1cc(C(=O)NC[C@](O)(c2cc(C3(C(N)=O)CC3)c(F)c(-c3ccc(F)c(Cl)c3F)n2)C2CC2)cc2cn(C(F)F)nc12 (single isomer, unassigned) [Example 21] | < 10 nM | > 1000 nM |  |  | 
COc1cc(C(=O)NC[C@](O)(c2cc(C3(C(N)=O)CC3)c(F)c(-c3ccc(F)c(Cl)c3F)n2)C2CC2)cc2cn(C3(F)CC3)nc12 (single isomer, unassigned) [Example 22] | < 10 nM | > 1000 nM |  |  | 
COc1cc(C(=O)NC[C@](O)(c2cc(C(C)(C)O)c(F)c(-c3ccc(F)cc3)n2)C2CC2)cc2cn(C3(F)CC3)nc12 [Example 4] | < 10 nM | < 1000 nM |  |  | 
NC(=O)C1(c2cc([C@@](O)(CNC(=O)c3cc(OC4CC4)c4nn(C(F)F)cc4c3)C3CC3)nc(-c3cc(Cl)c(F)cc3F)c2F)CC1 (single isomer, unassigned) [Example 18] | 10 to 50 nM | > 1000 nM |  |  | 
CC(C)(O)c1cc([C@@](O)(CNC(=O)c2ccc3nn(C4CC4)cc3c2)C2CC2)nc(-c2ccc(F)cc2)c1F [Example 3] | 10 to 50 nM | > 1000 nM |  |  | 
COc1cc(C(=O)NC[C@](O)(c2cc(C(O)(C(F)(F)F)C(F)(F)F)c(F)c(-c3ccc(F)cc3)n2)C2CC2)cc2cn(C3CC3)nc12 (single isomer, unassigned) [Example 47] | 10 to 50 nM | > 1000 nM |  |  | 
Palivizumab |  |  |  |  | 60%
COc1cc(C(=O)NC[C@](O)(c2cc(C(C)(C)O)c(F)c(-c3ccc(F)cc3)n2)C2CC2)cc2cn(C3CC3)nc12 [Example 1] | < 10 nM | < 1000 nM |  |  | 
Cc1nc2c(OC(F)F)cc(C(=O)NC[C@@](O)(c3ccccc3)c3cc(C(C)(C)O)c(F)c(-c4cc(Cl)c(F)cc4F)n3)cc2cc1Br [Example 66] | > 50 nM | < 1000 nM |  |  | 
COc1cc(C(=O)NC[C@](O)(c2cc(C3(C(N)=O)CC3)cc(-c3cc(Cl)c(F)cc3F)n2)C2CC2)cc2cn(C(F)F)nc12 (single isomer, unassigned) [Example 25] | 10 to 50 nM | > 1000 nM |  |  | 
CC(C)(O)c1cc([C@@](O)(CNC(=O)c2cc(F)c3nn(C(F)F)cc3c2)C2CC2)nc(-c2ccc(F)cc2)c1F (single isomer, unassigned) [Example 7] | > 50 nM | > 1000 nM |  |  | 
CC(C)(O)c1cc([C@@](O)(CNC(=O)c2cc(Cl)c3nn(C4CC4)cc3c2)C2CC2)nc(-c2ccc(F)cc2)c1F [Example 6] | < 10 nM | < 1000 nM |  |  | 
COc1cc(C(=O)NC[C@](O)(c2cc(N3CC[C@H](O)C3)cc(-c3cc(Cl)c(F)cc3F)n2)C2CC2)cc2cn(C3CC3)nc12 [Example 199] | > 50 nM | > 1000 nM |  |  | 
Cc1nc2c(OC3CC3)cc(C(=O)NC[C@](O)(c3cc(C4(O)CC4)c(F)c(-c4ccc(F)cc4)n3)C3CC3)cc2cc1Cl (single isomer, unassigned) [Example 49] | < 10 nM | > 1000 nM |  |  | 

Continued, in another order:

EC50 [1, 4] | EC50 ([2]; LLC-MK2, 168 h) | EC50 [1] | EC50 [2] | Molecule | effective in reducing hospitalizations [3]
< 10 nM | < 1000 nM |  |  | [2H]C([2H])([2H])C(O)(c1cc([C@@](O)(CNC(=O)c2cc(OC)c3nn(C4CC4)cc3c2)c2ccccc2)nc(-c2cc(Cl)c(F)cc2F)c1F)C([2H])([2H])[2H] [Example 183] | 
10 to 50 nM | > 1000 nM |  |  | COc1cc(C(=O)NC[C@](O)(c2cc(C3(C(N)=O)CC3)c(F)c(-c3ccc(F)c(Cl)c3F)n2)C2CC2)cc2cn(C3CC3)nc12 (single isomer, unassigned) [Example 20] | 
< 10 nM | < 1000 nM |  |  | COc1cc(C(=O)NC[C@@](O)(c2ccccc2)c2cc(C(C)(C)O)c(F)c(-c3cc(Cl)c(F)cc3F)n2)cc2cc(C3CC3)nn12 [Example 64] | 
10 to 50 nM | > 1000 nM |  |  | COc1cc(C(=O)NC[C@](O)(c2cc(C3(C(N)=O)CC3)c(F)c(-c3cc(Cl)c(F)cc3F)n2)C2CC2)cc2cn(C(F)F)nc12 (single isomer, unassigned) [Example 9] | 
10 to 50 nM | < 1000 nM |  |  | COc1cc(C(=O)NC[C@@](O)(c2ccccc2)c2cc(C(C)(C)O)c(F)c(-c3cc(Cl)c(F)cc3F)n2)cc2cc(Cl)c(C)nc12 [Example 65] | 
< 10 nM | < 1000 nM |  |  | COc1cc(C(=O)NC[C@@](O)(c2ccccc2)c2cc(C(C)(C)O)c(F)c(-c3ccc(F)c(Cl)c3F)n2)cc2cn(C3CC3)nc12 [Example 123] | 
< 10 nM | < 1000 nM |  |  | COc1cc(C(=O)NC[C@@](O)(c2ccccc2)c2cc(C(C)(C)O)c(F)c(-c3ccc(F)c(Cl)c3Cl)n2)cc2cn(C3CC3)nc12 [Example 67] | 
< 10 nM | < 1000 nM |  |  | COc1cc(C(=O)NC[C@@](O)(c2ccccc2)c2nc(-c3cc(Cl)c(F)cc3F)c(F)c(C(C)(C)O)c2F)cc2cn(C3CC3)nc12 [Example 127] | 
> 50 nM | > 1000 nM |  |  | COc1cc(C(=O)NC[C@@](O)(c2ccccc2)c2cc(C(=O)NC3(C)CC3)c(F)c(-c3cc(Cl)c(F)cc3F)n2)cc2cn(C3CC3)nc12 [Example 195] | 
< 10 nM | < 1000 nM |  |  | [2H]C([2H])([2H])C(O)(c1cc([C@@](O)(CNC(=O)c2cc(OC)c3nn(C(F)F)cc3c2)c2ccccc2)nc(-c2cc(Cl)c(F)cc2F)c1F)C([2H])([2H])[2H] [Example 185] | 
< 10 nM | < 1000 nM |  |  | COc1cc(C(=O)NC[C@@](O)(c2ccccc2)c2cc(C(C)(C)O)c(F)c(-c3ccc4c(c3Cl)OC(F)(F)O4)n2)cc2cn(C3CC3)nc12 [Example 74] | 
< 10 nM | < 1000 nM |  |  | COc1cc(C(=O)NC[C@@](O)(c2ccccc2)c2cc(C(C)(C)O)c(F)c(-c3cccc(Cl)c3Cl)n2)cc2cn(C3CC3)nc12 [Example 79] | 
 |  | < 10 nM | < 1000 nM | COc1cc(C(=O)NC[C@@](O)(c2ccccc2)c2cc(C(C)(C)O)c(Cl)c(-c3cc(Cl)c(F)cc3F)n2)cc2cn(C3CC3)nc12 [Example 144] | 
